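Tested at 5 concentrations; 48 h exposure; 96-well plates; endpoints linearly interpolated, else capped at highest concentration. At the GI50, growth is halved.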 Active and inactive are the calls of the source. Cut-off read from the data, not from the text of the source: active = GI50 up to about 1.1 µM and inactive = higher.
Experiments:
Assay in all cases: NCI-60 cell line screen, 48 h
Hs-578T = tested on: Hs-578T
U-251 = tested on: U-251
UACC-257 = tested on: UACC-257
IGROV-1 = tested on: IGROV-1
K562 = tested on: K562
SW-620 = tested on: SW-620
MDA-N = tested on: MDA-N
MOLT-4 = tested on: MOLT-4
UO-31 = tested on: UO-31
DU-145 = tested on: DU-145
MDA-MB-231 = tested on: MDA-MB-231
RPMI-8226 = tested on: RPMI-8226
SNB-19 = tested on: SNB-19
MDA-MB-435 = tested on: MDA-MB-435
UACC-62 = tested on: UACC-62
HCT-15 = tested on: HCT-15
NCI/ADR-RES = tested on: NCI/ADR-RES
NCI-H522 = tested on: NCI-H522
TK-10 = tested on: TK-10
SF-539 = tested on: SF-539

SMILES | GI50 (Hs-578T) | GI50 (U-251) | GI50 (UACC-257) | GI50 (IGROV-1) | GI50 (K562) | GI50 (SW-620) | GI50 (MDA-N) | GI50 (MOLT-4) | GI50 (UO-31) | GI50 (DU-145) | GI50 (MDA-MB-231) | GI50 (RPMI-8226) | GI50 (SNB-19) | GI50 (MDA-MB-435) | GI50 (UACC-62) | GI50 (HCT-15) [µM] | GI50 (NCI/ADR-RES) | GI50 (NCI-H522) | GI50 (TK-10) | GI50 (SF-539)
COC(=O)[C@@H]1[C@H](O)[C@H](C)[C@H](O)[C@H](C)/C=C\C=C(\C)C(=O)Nc2c(C)c(OC(C)=O)c3c(c2O)C(=O)C(C)=C2OCOC(=C23)/C(C)=C/[C@@H](O)[C@H](O)[C@@H](C)[C@H]1OC(C)=O | > 100 µM (inactive) | > 100 µM (inactive) | 28.3 µM (inactive) | 67.9 µM (inactive) | 52.7 µM (inactive) | 32.1 µM (inactive) | 22.2 µM (inactive) | 26.5 µM (inactive) | 38.5 µM (inactive) | > 100 µM (inactive) | 92.9 µM (inactive) | 15.5 µM (inactive) | 21.5 µM (inactive) | – | – | – | – | – | – | –
O=C1CCC(C(=O)O)C2=C1CCCC2 (stereo unspecified) | > 100 µM (inactive) | > 15.7 µM (inactive) | > 100 µM (inactive) | > 100 µM (inactive) | > 100 µM (inactive) | > 100 µM (inactive) | > 100 µM (inactive) | > 100 µM (inactive) | – | > 100 µM (inactive) | > 100 µM (inactive) | > 100 µM (inactive) | > 36.2 µM (inactive) | > 100 µM (inactive) | > 100 µM (inactive) | > 100 | > 100 µM (inactive) | > 100 µM (inactive) | > 100 µM (inactive) | –
O=c1[nH]c(=O)n(CCOc2ccccc2)cc1Nc1ccccc1 | 52.5 µM (inactive) | > 100 µM (inactive) | > 100 µM (inactive) | > 100 µM (inactive) | > 100 µM (inactive) | > 100 µM (inactive) | > 100 µM (inactive) | > 100 µM (inactive) | > 100 µM (inactive) | > 100 µM (inactive) | – | > 100 µM (inactive) | > 100 µM (inactive) | > 100 µM (inactive) | > 100 µM (inactive) | > 100 | > 100 µM (inactive) | 6.11 µM (inactive) | – | –
O=C(COc1ccc(OCC(=O)N2C(=O)CC/C2=N\c2ccc(Cl)cc2)cc1)N1C(=O)CS/C1=N\c1ccc(Cl)cc1 | > 100 µM (inactive) | 29.5 µM (inactive) | 56 µM (inactive) | 47.6 µM (inactive) | 66.4 µM (inactive) | > 100 µM (inactive) | > 100 µM (inactive) | – | 37.2 µM (inactive) | > 100 µM (inactive) | 26.9 µM (inactive) | 46.1 µM (inactive) | 63.2 µM (inactive) | > 100 µM (inactive) | > 100 µM (inactive) | > 100 | > 100 µM (inactive) | 63.4 µM (inactive) | > 100 µM (inactive) | –
C=CCN1C[C@H](C)N([C@@H](c2ccc(C(=O)N3CCCCC3)cc2)c2cccc(OC)c2)C[C@H]1C | 86.7 µM (inactive) | 32.1 µM (inactive) | 21.2 µM (inactive) | 63.2 µM (inactive) | 20.6 µM (inactive) | – | 34.5 µM (inactive) | 64.1 µM (inactive) | 24.4 µM (inactive) | 80.5 µM (inactive) | 30.1 µM (inactive) | – | 50.5 µM (inactive) | 35 µM (inactive) | 21.5 µM (inactive) | 29.6 | 32.4 µM (inactive) | 21.7 µM (inactive) | 40 µM (inactive) | 27 µM (inactive)
CC1=N[C@@](C)(C2CC3C=CC2C3=O)COC1=O (stereo partly specified) | > 100 µM (inactive) | > 100 µM (inactive) | > 100 µM (inactive) | > 100 µM (inactive) | > 100 µM (inactive) | > 100 µM (inactive) | > 100 µM (inactive) | > 100 µM (inactive) | > 100 µM (inactive) | > 100 µM (inactive) | > 100 µM (inactive) | – | > 100 µM (inactive) | > 100 µM (inactive) | > 100 µM (inactive) | – | – | > 100 µM (inactive) | > 100 µM (inactive) | > 100 µM (inactive)
COc1ccc(-c2csc(Cc3nc4ccccc4c(=O)n3-c3ccc(Cl)cc3)n2)cc1 | > 100 µM (inactive) | 32.2 µM (inactive) | 51.1 µM (inactive) | 32.7 µM (inactive) | 14.6 µM (inactive) | 58.3 µM (inactive) | 22.7 µM (inactive) | 20 µM (inactive) | 34.6 µM (inactive) | 84.5 µM (inactive) | 60.7 µM (inactive) | 15.9 µM (inactive) | 24.4 µM (inactive) | 28.5 µM (inactive) | 18.5 µM (inactive) | 29.1 | 56.1 µM (inactive) | 45.7 µM (inactive) | > 100 µM (inactive) | –
O=C(NCCCCN(CCCNC(=O)C(F)(F)F)Cc1ccccc1)C(F)(F)F | > 100 µM (inactive) | > 100 µM (inactive) | > 100 µM (inactive) | 25.2 µM (inactive) | > 100 µM (inactive) | > 100 µM (inactive) | – | > 100 µM (inactive) | > 100 µM (inactive) | > 100 µM (inactive) | > 100 µM (inactive) | > 100 µM (inactive) | > 100 µM (inactive) | > 100 µM (inactive) | > 100 µM (inactive) | > 100 | > 100 µM (inactive) | > 100 µM (inactive) | > 100 µM (inactive) | > 100 µM (inactive)
Nc1ccccc1/N=N/c1c(S(=O)(=O)O)cc2cc(S(=O)(=O)O)cc(O)c2c1O | > 100 µM (inactive) | > 100 µM (inactive) | > 100 µM (inactive) | > 100 µM (inactive) | > 100 µM (inactive) | > 100 µM (inactive) | 32.4 µM (inactive) | > 100 µM (inactive) | > 100 µM (inactive) | > 100 µM (inactive) | > 100 µM (inactive) | > 100 µM (inactive) | > 100 µM (inactive) | > 100 µM (inactive) | > 100 µM (inactive) | > 100 | > 100 µM (inactive) | > 100 µM (inactive) | > 100 µM (inactive) | –
Cl/C(=C\C=N\c1ccc(I)cc1)c1ccc2ccccc2c1 | 28.4 µM (inactive) | 16.4 µM (inactive) | 15.4 µM (inactive) | 17.9 µM (inactive) | 6.14 µM (inactive) | 19.1 µM (inactive) | – | 5.13 µM (inactive) | 17.5 µM (inactive) | 21.4 µM (inactive) | 14.5 µM (inactive) | 17.3 µM (inactive) | 18.3 µM (inactive) | 9.42 µM (inactive) | 8.83 µM (inactive) | 12.6 | 14.9 µM (inactive) | 27.2 µM (inactive) | 16.4 µM (inactive) | 19.9 µM (inactive)
CC(C)CCC[C@@H](C)[C@H]1CCC2C3CC=C4C[C@@H](Oc5c6ccccc6nc6ccccc56)CCC4C3CCC21 (stereo partly specified) | > 50 µM (inactive) | > 50 µM (inactive) | > 50 µM (inactive) | > 50 µM (inactive) | > 50 µM (inactive) | > 50 µM (inactive) | > 50 µM (inactive) | – | 25.6 µM (inactive) | > 50 µM (inactive) | 39.9 µM (inactive) | – | > 50 µM (inactive) | > 50 µM (inactive) | > 50 µM (inactive) | > 50 | > 50 µM (inactive) | 36.4 µM (inactive) | > 50 µM (inactive) | > 50 µM (inactive)
COC[C@@H](/N=C/c1ccc(OC)cc1)C(C)C | > 100 µM (inactive) | > 100 µM (inactive) | > 100 µM (inactive) | > 100 µM (inactive) | > 100 µM (inactive) | > 100 µM (inactive) | > 100 µM (inactive) | > 100 µM (inactive) | > 100 µM (inactive) | > 100 µM (inactive) | – | > 100 µM (inactive) | – | > 100 µM (inactive) | > 100 µM (inactive) | > 100 | > 100 µM (inactive) | > 100 µM (inactive) | > 100 µM (inactive) | –
C#CC(O)/C=C/C(O)CCCC(O)CC#CC(O)C#CCCCCC(O)/C=C/CCCC(O)/C=C/CCCCCCCCCCCCCC(O)C(O)C#CC(=O)O (stereo unspecified) | > 25 µM (inactive) | > 25 µM (inactive) | > 25 µM (inactive) | > 25 µM (inactive) | > 25 µM (inactive) | – | > 25 µM (inactive) | > 25 µM (inactive) | > 25 µM (inactive) | > 25 µM (inactive) | > 25 µM (inactive) | > 25 µM (inactive) | > 25 µM (inactive) | > 25 µM (inactive) | > 25 µM (inactive) | > 25 | > 25 µM (inactive) | 12.8 µM (inactive) | > 25 µM (inactive) | –
Cc1cc(C)cc(Nc2cc(O)nc(O)n2)c1 | > 100 µM (inactive) | > 100 µM (inactive) | > 100 µM (inactive) | > 100 µM (inactive) | > 100 µM (inactive) | > 100 µM (inactive) | > 100 µM (inactive) | > 100 µM (inactive) | > 100 µM (inactive) | > 100 µM (inactive) | > 100 µM (inactive) | > 100 µM (inactive) | > 100 µM (inactive) | > 100 µM (inactive) | – | > 100 | > 100 µM (inactive) | – | > 100 µM (inactive) | > 100 µM (inactive)
Cc1ccc(S(=O)(=O)NC(=O)NC(Cc2c[nH]c3ccccc23)C(=O)O)cc1 (stereo unspecified) | > 100 µM (inactive) | > 100 µM (inactive) | > 100 µM (inactive) | > 100 µM (inactive) | > 100 µM (inactive) | > 100 µM (inactive) | > 100 µM (inactive) | > 100 µM (inactive) | > 100 µM (inactive) | > 100 µM (inactive) | > 100 µM (inactive) | > 100 µM (inactive) | > 100 µM (inactive) | – | – | > 100 | > 100 µM (inactive) | > 100 µM (inactive) | > 100 µM (inactive) | > 100 µM (inactive)

Source: ChEMBL document CHEMBL1201862, “PubChem BioAssay data set” (2004)
